Laboratory results reported in the NIST ThermoML archive (doi:10.1007/s10765-010-0768-y).

Experiment: xn = mol fraction of the nth substance listed
Details: 101 kPa, Liquid, Pycnometric method

C=CC(=O)OCCCC [butyl 2-propenoate] + Cc1cc(C)cc(C)c1
mass density [kg/m3]
Details | 288.15 K | 293.15 K | 298.15 K | 303.15 K | 308.15 K | 313.15 K | 318.15 K
x1 = 0.0724 | 871.63 | 867.64 | 863.65 | 859.66 | 855.67 | 851.68 | 847.69
x1 = 0.1414 | 873.88 | 869.82 | 865.76 | 861.7 | 857.64 | 853.58 | 849.52
x1 = 0.2135 | 876.24 | 872.11 | 867.99 | 863.87 | 859.75 | 855.63 | 851.51
x1 = 0.2846 | 878.6 | 874.42 | 870.24 | 866.06 | 861.88 | 857.71 | 853.54
x1 = 0.3512 | 880.84 | 876.6 | 872.37 | 868.14 | 863.91 | 859.68 | 855.45
x1 = 0.4223 | 883.26 | 878.97 | 874.68 | 870.39 | 866.1 | 861.81 | 857.53
x1 = 0.4998 | 885.94 | 881.58 | 877.22 | 872.87 | 868.52 | 864.17 | 859.82
x1 = 0.5724 | 888.47 | 884.05 | 879.63 | 875.21 | 870.8 | 866.39 | 861.98
x1 = 0.6578 | 891.46 | 886.97 | 882.48 | 877.99 | 873.5 | 869.02 | 864.54
x1 = 0.7131 | 893.41 | 888.87 | 884.33 | 879.8 | 875.27 | 870.74 | 866.21
x1 = 0.7823 | 895.86 | 891.26 | 886.66 | 882.07 | 877.48 | 872.89 | 868.3
x1 = 0.8563 | 898.49 | 893.83 | 889.17 | 884.52 | 879.87 | 875.22 | 870.57
x1 = 0.9295 | 901.09 | 896.38 | 891.67 | 886.96 | 882.26 | 877.56 | 872.86
x1 = 1 | 903.6 | 898.85 | 894.1 | 889.35 | 884.6 | 879.85 | 875.1
